Laboratory results: ChEMBL document CHEMBL1201862, “PubChem BioAssay data set” (2004)
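Briefly, cells in 96-well plates were exposed to five compound concentrations for 48 h, and endpoints were estimated by linear interpolation. At the GI50, growth is halved.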 The source made the active and inactive calls. Cut-off read from the data, not from the text of the source: active = GI50 up to about 1.1 µM and inactive = higher.

Columns and labels:
Experiment in all cases: inhibition of tumour cell growth, NCI panel, 48 h
[1] = system: NCI-H522
[2] = system: SF-539
[3] = system: A498
[4] = system: RPMI-8226
[5] = system: CCRF-CEM
[6] = system: SR
[7] = system: ACHN
[8] = system: SF-268
[9] = system: SW-620
[10] = system: NCI-H23
[11] = system: COLO 205
[12] = system: T47D
[13] = system: K562
[14] = system: A549
[15] = system: MDA-MB-435
[16] = system: LOX IMVI
[17] = system: SK-MEL-5
[18] = system: SNB-19

Measured: GI50

O=C(O/N=c1/ccc(=O)/c(=N\OC(=O)c2ccccc2)c1=O)c1ccccc1
inactive: [1] > 100 µM | [2] > 100 µM | [3] > 100 µM | [4] 79.8 µM | [5] 33 µM | [6] > 100 µM | [7] > 100 µM | [8] > 100 µM | [9] > 100 µM | [10] > 100 µM | [11] > 100 µM | [12] > 100 µM | [13] 39.4 µM | [14] > 100 µM | [15] 53.6 µM | [16] > 100 µM | [17] > 100 µM | [18] 76.2 µM

CCNC(=O)COc1ccc(Cl)c(C)c1
inactive: [1] > 100 µM | [2] > 100 µM | [3] > 100 µM | [4] > 100 µM | [5] > 100 µM | [6] > 100 µM | [7] > 100 µM | [8] > 100 µM | [9] > 100 µM | [10] > 100 µM | [11] > 100 µM | [13] > 100 µM | [14] > 100 µM | [16] > 100 µM | [17] > 100 µM | [18] > 100 µM

N#CC1CC2(C1)OCCS2 (centres undefined)
inactive: [1] > 100 µM | [2] > 100 µM | [3] > 100 µM | [4] > 100 µM | [5] > 100 µM | [6] > 100 µM | [7] > 100 µM | [8] > 100 µM | [9] > 100 µM | [10] > 100 µM | [11] > 100 µM | [13] > 100 µM | [14] > 100 µM | [16] > 100 µM | [18] > 100 µM

O=C(O)c1c([N+](=O)[O-])cc(C(F)(F)F)cc1[N+](=O)[O-]
inactive: [1] > 100 µM | [2] > 100 µM | [3] > 100 µM | [4] > 100 µM | [5] > 100 µM | [6] > 100 µM | [7] > 100 µM | [8] > 100 µM | [9] > 100 µM | [10] > 100 µM | [11] > 100 µM | [13] > 100 µM | [14] > 100 µM | [16] > 100 µM | [17] > 100 µM | [18] > 100 µM

Cc1c(Cl)cccc1N1C(=O)C(Cl)=C(Cl)C1=O
inactive: [1] 13.5 µM | [2] > 100 µM | [3] > 100 µM | [4] 43 µM | [5] 16.4 µM | [6] 34.2 µM | [7] > 100 µM | [8] > 100 µM | [9] > 58.2 µM | [10] > 100 µM | [11] > 65.9 µM | [13] 17.9 µM | [14] > 100 µM | [16] > 100 µM | [17] > 100 µM | [18] > 100 µM

CC(=O)N1[C@H](C(=O)O)CS[C@H]1c1ccc(F)cc1
inactive: [2] > 100 µM | [3] > 100 µM | [5] > 100 µM | [6] > 100 µM | [7] > 100 µM | [8] > 100 µM | [9] > 100 µM | [10] > 100 µM | [11] > 100 µM | [13] > 100 µM | [14] > 100 µM | [16] > 100 µM | [17] > 100 µM | [18] > 100 µM

CC(C)(O)[C@@H]1CC[C@@]2(C)CCCC(O)C2(O)C1 (some centres undefined)
inactive: [1] > 100 µM | [2] > 100 µM | [3] > 100 µM | [4] > 100 µM | [5] > 100 µM | [6] > 100 µM | [7] > 100 µM | [8] > 100 µM | [9] > 100 µM | [10] > 100 µM | [11] > 100 µM | [13] > 100 µM | [14] > 100 µM | [16] > 100 µM | [17] > 100 µM | [18] > 100 µM

CCN1CCCC(C#N)(c2ccccc2)CC1 (centres undefined)
inactive: [3] > 100 µM | [4] > 100 µM | [5] > 10 µM | [6] > 100 µM | [7] > 100 µM | [8] > 100 µM | [9] > 100 µM | [10] > 100 µM | [11] > 100 µM | [12] > 100 µM | [13] > 100 µM | [14] > 100 µM | [17] > 100 µM | [18] > 100 µM

CCCCCCCCOCC(O)COC (centres undefined)
inactive: [3] > 100 µM | [4] > 100 µM | [5] > 100 µM | [6] > 100 µM | [7] > 100 µM | [8] > 100 µM | [9] > 100 µM | [10] > 100 µM | [11] > 100 µM | [13] 63.8 µM | [14] > 100 µM | [16] > 100 µM | [17] > 100 µM | [18] > 100 µM

COc1ccc2c(c1)C(=O)C1CC(=O)CCC21 (centres undefined)
inactive: [1] > 100 µM | [2] > 100 µM | [3] > 100 µM | [4] > 100 µM | [5] > 100 µM | [6] > 100 µM | [7] > 100 µM | [8] > 100 µM | [9] > 100 µM | [10] > 100 µM | [11] > 100 µM | [13] > 100 µM | [14] > 100 µM | [16] > 100 µM | [17] > 100 µM | [18] > 100 µM

O=C(/C(=C/c1ccc(Cl)cc1)c1ccccc1)c1ccccc1
inactive: [1] 14.2 µM | [2] 17.4 µM | [3] 23.6 µM | [4] 18.5 µM | [5] 32.4 µM | [6] 19.9 µM | [7] 19.7 µM | [8] 18.2 µM | [9] 17.4 µM | [10] 17.5 µM | [11] 18.8 µM | [13] 27.4 µM | [16] 15.4 µM

O=C1O[C@H](c2ccccc2)[C@@H]2CC3(CCN12)OCCO3
inactive: [1] 2.2 µM | [2] > 100 µM | [3] > 100 µM | [4] > 100 µM | [5] > 100 µM | [6] > 100 µM | [7] > 100 µM | [8] > 100 µM | [9] > 100 µM | [10] 68.9 µM | [11] > 100 µM | [13] > 100 µM | [14] > 100 µM | [16] > 100 µM | [17] > 100 µM | [18] > 100 µM

COc1ccc(/C(C#N)=C(/N)SCc2ccccc2Cl)cc1
inactive: [1] 14 µM | [2] 17.4 µM | [3] 18.9 µM | [4] 22.8 µM | [5] 27.9 µM | [6] 25.2 µM | [7] > 10 µM | [8] 16.4 µM | [9] 16.1 µM | [10] 16.8 µM | [11] 20.3 µM | [13] 18.5 µM | [14] 26.4 µM | [16] 15.2 µM | [18] > 10 µM
